Laboratory results: patent publication US20080255174A1, “Hydroalcoholic Extract Of Erythrina Mulungu, Pharmaceutical Compositions And Processes For Producing These Substances” (priority 2004, published 2008)

Experiments:
[1] = test system: serotonergic 3 receptor (5-HT3); details: in vitro test (ELSELÈ et al., 1993); cited from earlier work
[2] = test system: Swiss mice; assay: elevated T maze test (inhibitory avoidance and escape from the open arms); assay type: in vivo; set-up: Escape: unit not given here; details: for Escape / Inhibitory avoidances E1 / Inhibitory avoidances E2 / Inhibitory avoidances E3 / Inhibitory avoidances E4 / Inhibitory avoidances LB (basal latency): acute, average ± EPM; for Escape: departure time from open arm; for Inhibitory avoidances E1 / Inhibitory avoidances E2 / Inhibitory avoidances E3 / Inhibitory avoidances E4 / Inhibitory avoidances LB (basal latency): latency, maximum 300 seconds
Description: (§1) Swiss mice weighing 25-35 g from the central animal laboratory of the Sao Paulo State University (UNESP/Araraquara) were used. The animals were housed in groups of 10-12 animals, in polypropylene cages with wood shavings on the floor, with food and water available ad […]]. The animal laboratory was maintained under constant temperature 22±1° C., the lighting was controlled in 12-hour cycles from 7:00 am to 7:00 pm and the humidity was kept at between 50-60%. The pharmacological evaluation was performed with extract, standard drug and vehicle. Accordingly, lyophilized hydroalcoholic extract (50, 100, 200 and 400 mg/kg) was used, in addition to F2 (3, 6, 10, 17 and 30 mg/kg) and the alkaloids erythrartine, erythravine and 11-OH-erythravine (3 and 10 mg/kg), administered via oral intake by gavage. The standard drug used was Diazepam (DZP) in a dose of 2 mg/kg (via intraperitoneal, i.p). All solutions were prepared on the day of the experiment with sodium […] 0.9% and sonicated for 15 minutes and the diazepam in a solution of sodium […] 0.9% and Tween-80. The experiments were carried out between 11:00 am and 5:00 pm, and the experiment apparatus and procedures are described ahead. The elevated T maze is made with transparent glass walls and wooden floor and consists of a closed arm (30×5×15 cm) perpendicularly linked to two open arms (30×5×0.25 cm), raised at 38.5 cm above the floor by a wooden support. In this test, five consecutive measures of inhibitory avoidance were performed (basal latency, avoidances 1, 2, 3 and 4) and one measure of escape from the open arms, with intervals of 30 seconds between each attempt. In the avoidance measures, the animals were placed in the distal section of the closed arm and the exit latency of this arm, on all four paws, towards the open arm was timed. In the escape measure, the animals were placed in the extremity of the right-hand open arm and the departure time from this arm was measured. The animals' maximum length of stay in the arms of the maze during these measures was 300 seconds. The apparatus was cleaned with ethanol 20% after testing each animal. In order to avoid false positives or negatives, immediately after testing in the elevated T maze, the animals were submitted to the locomotive activity test in the arena. The apparatus consists of a white polypropylene box with a rectangular base (40×48 cm), surrounded by 30 cm high walls. The floor is subdivided into 30 squares (8×8 cm). In this test, the animals were placed in the center of the box and their activity was video recorded for five minutes, for subsequent analysis of the number of crossings of the quadrant areas and number of stretch-attend postures (WALSH and CUMMINS, 1976).
(§2) All the results from the animal models were initially submitted to the Levene homogeneity test. The heterogeneous results were converted into a logarithmic scale and later analyzed statistically. The results obtained from the elevated T maze were submitted to a two-way analysis of variance (ANOVA), with treatment being an independent factor and attempts being a dependent factor. […] The results obtained with the arena were submitted to a one-way ANOVA followed by the Duncan post hoc test. Amounts p≦0.05 were considered to be significant results.

[3] = test system: Swiss mice; assay: locomotive activity test in the arena; assay type: in vivo; details: for Crossings / Stretch-attend postures: acute, number in five minutes, average ± EPM
Description: as §1, §2

CO[C@H]1CC=C2CCN3CCC4=C(CC(=O)OC4)[C@]23C1 [DHBE, dihydro-β-erythroidine]
action at 5-HT3 receptor [1]: serotonergic 3 antagonist receptor (5-HT3)

CN1C(=O)CN=C(c2ccccc2)c2cc(Cl)ccc21 [DZP, Diazepam, reference compound]
Escape ([2]; DZP 2 mg/kg i.p.): 19.0 ± 3.2
Inhibitory avoidances E1 ([2]; DZP 2 mg/kg i.p.): 15.3 ± 3.8
Inhibitory avoidances E2 ([2]; DZP 2 mg/kg i.p.): 12.25 ± 1.6
Inhibitory avoidances E3 ([2]; DZP 2 mg/kg i.p.): 22.3 ± 7.7
Inhibitory avoidances E4 ([2]; DZP 2 mg/kg i.p.): 24.2 ± 7.3
Inhibitory avoidances LB (basal latency) ([2]; DZP 2 mg/kg i.p.): 24.6 ± 4.1
Crossings ([3]; DZP 2 mg/kg i.p.): 154.6 ± 19.48
Stretch-attend postures ([3]; DZP 2 mg/kg i.p.): 19.13 ± 2.03

COc1cc2c(cc1OC)[C@]13C[C@@H](O)C=CC1=CCN3C[C@H]2O [11-OH-erythravine, 11-hydroxy-erythravine]
Escape ([2]; 3 mg/kg oral by gavage): 21.5 ± 3.7
Inhibitory avoidances E1 ([2]; 3 mg/kg oral by gavage): 41.8 ± 14.2
Inhibitory avoidances E2 ([2]; 3 mg/kg oral by gavage): 96.0 ± 34.4
Inhibitory avoidances E3 ([2]; 3 mg/kg oral by gavage): 132.3 ± 39.7
Inhibitory avoidances E4 ([2]; 3 mg/kg oral by gavage): 194.4 ± 39.5
Inhibitory avoidances LB (basal latency) ([2]; 3 mg/kg oral by gavage): 30.7 ± 5.8
Escape ([2]; 10 mg/kg oral by gavage): 26.8 ± 4.8
Inhibitory avoidances E1 ([2]; 10 mg/kg oral by gavage): 30.0 ± 6.1
Inhibitory avoidances E2 ([2]; 10 mg/kg oral by gavage): 54.0 ± 21.1
Inhibitory avoidances E3 ([2]; 10 mg/kg oral by gavage): 66.6 ± 30.3
Inhibitory avoidances E4 ([2]; 10 mg/kg oral by gavage): 94.8 ± 31.7
Inhibitory avoidances LB (basal latency) ([2]; 10 mg/kg oral by gavage): 22.6 ± 3.5
performance in the inhibitory avoidance task ([2]; acute treatment, 3 and 10 mg/kg oral, result in words): impaired the performance of the animals in the inhibitory avoidance task
Crossings ([3]; 3 mg/kg oral by gavage): 158.5 ± 7.12
Stretch-attend postures ([3]; 3 mg/kg oral by gavage): 27.7 ± 3.20
Crossings ([3]; 10 mg/kg oral by gavage): 126.5 ± 12.71
Stretch-attend postures ([3]; 10 mg/kg oral by gavage): 22.4 ± 3.50
locomotive activity (number of crossings and stretch-attend postures) ([3]; 3 and 10 mg/kg oral, one-way ANOVA, result in words): none of the doses of 11-OH-erythravine used altered the locomotive activity
